How the values were obtained:
[1] = cited from earlier work
[2] = Stability in rat plasma under storage and processing conditions (QC samples, UPLC-MS/MS); details: n = 6
Protocol: The stability of plasma samples was validated by the QC samples at three concentration levels in six replicates under various storage and processing conditions: autosampler for 24 h after preprocessing, room temperature for 8 h, −80°C for 30 days, and three freeze-thaw cycles (−80°C to room temperature). The samples were verified to be stable if the deviation of the samples was not more than ±15% of the standard concentration.

[3] = Freeze-thaw stability for three times, high QC (nominal 150 almonertinib, 800 apixaban, 1,500 rivaroxaban ng/mL)
[4] = Freeze-thaw stability for three times, low QC (nominal 1 almonertinib, 2 apixaban, 10 rivaroxaban ng/mL)
[5] = Freeze-thaw stability for three times, medium QC (nominal 80 almonertinib, 400 apixaban, 800 rivaroxaban ng/mL)
[6] = Room temperature for 8 h, high QC (nominal 150 almonertinib, 800 apixaban, 1,500 rivaroxaban ng/mL)
[7] = Room temperature for 8 h, low QC (nominal 1 almonertinib, 2 apixaban, 10 rivaroxaban ng/mL)
[8] = Room temperature for 8 h, medium QC (nominal 80 almonertinib, 400 apixaban, 800 rivaroxaban ng/mL)
[9] = −80°C for 30 days, high QC (nominal 150 almonertinib, 800 apixaban, 1,500 rivaroxaban ng/mL)
[10] = −80°C for 30 days, low QC (nominal 1 almonertinib, 2 apixaban, 10 rivaroxaban ng/mL)
[11] = −80°C for 30 days, medium QC (nominal 80 almonertinib, 400 apixaban, 800 rivaroxaban ng/mL)

Compound	Stability: Accuracy (RE%) [2, 3] [%]	Stability: measured concentration, Mean ± SD [2, 3] [ng/mL]	Stability: Accuracy (RE%) [2, 4] [%]	Stability: measured concentration, Mean ± SD [2, 4] [ng/mL]	Stability: Accuracy (RE%) [2, 5] [%]	Stability: measured concentration, Mean ± SD [2, 5] [ng/mL]	Stability: Accuracy (RE%) [2, 6] [%]	Stability: measured concentration, Mean ± SD [2, 6] [ng/mL]	Stability: Accuracy (RE%) [2, 7] [%]	Stability: measured concentration, Mean ± SD [2, 7] [ng/mL]	Stability: Accuracy (RE%) [2, 8] [%]	Stability: measured concentration, Mean ± SD [2, 8] [ng/mL]	Stability: Accuracy (RE%) [2, 9] [%]	Stability: measured concentration, Mean ± SD [2, 9] [ng/mL]	Stability: Accuracy (RE%) [2, 10] [%]	Stability: measured concentration, Mean ± SD [2, 10] [ng/mL]	Stability: Accuracy (RE%) [2, 11] [%]	Stability: measured concentration, Mean ± SD [2, 11] [ng/mL]	other results
C=CC(=O)Nc1cc(Nc2nccc(-c3cn(C4CC4)c4ccccc34)n2)c(OC)cc1N(C)CCN(C)C [almonertinib, Almonertinib]	−2.56	146.17 ± 6.68	1.47	1.01 ± 0.09	2.13	81.7 ± 2.27	−1.67	147.50 ± 9.83	0.97	1.01 ± 0.08	0.60	80.48 ± 6.42	−2.22	146.67 ± 10.63	2.33	1.02 ± 0.10	0.65	80.52 ± 3.47	half-life ([1]; almonertinib, ref Yang et al., 2020): 30 to 35 h
COc1ccc(-n2nc(C(N)=O)c3c2C(=O)N(c2ccc(N4CCCCC4=O)cc2)CC3)cc1 [apixaban, Apixaban]	0.04	800.33 ± 24.72	−3.42	1.93 ± 0.13	2.67	410.67 ± 12.03	0.60	804.83 ± 20.23	3.83	2.08 ± 0.07	6.08	424.33 ± 9.35	−2.15	782.83 ± 22.19	0.83	2.02 ± 0.08	0.13	400.50 ± 19.99	time of the maximal blood concentration after oral intake ([1]; (±1 h), each of two drugs, ref Steffel et al., 2021): 2 to 3 h; time to reach maximum plasma concentrations ([1]; after oral administration, ref Kubitza et al., 2005a, Kubitza et al., 2005b, Raghavan et al., 2009): 2 to 4 h; renal excretion as share of the total clearance ([1]; apixaban, ref Byon et al., 2019): approximately 27%
